# In patent US20220331303A1, “USE OF AN OREXIN 2 RECEPTOR AGONIST FOR THE TREATMENT OF EXCESSIVE SLEEPINESS” (Takeda Pharmaceutical Company Limited, priority 2019, published 2022):
# Read-outs that look alike come from different tables or passages of the source.
# Tests used:
# Format in all cases: in vivo, human
# patients with NT2 [1] = assay: KSS in patients with NT2; conditions: 9 hours postdose
# Protocol: (§1) The purpose of the study was to evaluate the safety, tolerability, pharmacokinetics and pharmacodynamics of Compound A after multiple days of IV administration in patients with NT2. NT2 patients were evaluated in Cohort C1 and C2 (Table 30). Compound A or placebo were administered via IV infusion over 9 hours once daily for 7 days. A total of 14 patients with NT2 were treated with Compound A or placebo (5, 4, and 5 subjects in the placebo, Compound A 44 mg, and Compound A 112 mg groups, respectively). In this part, potential efficacy of Compound A was evaluated with MWT, ESS, KSS, night-time PSG (NPSG), and PGI-C as an exploratory PD assessment.
# patients with NT2 [2] = assay: Epworth Sleepiness Scale (ESS) in patients with NT2; design: scale not given here; conditions: Day 7
# Protocol: as §1
# [3] = Multiple-dose plasma PK of IV Compound A in patients with NT2; conditions: for Cmax / concentration at 1 h / concentration at 2 h / concentration at 4 h / concentration at 6 h / concentration at 9 h / Tmax / AUC(0-inf) / AUC(0-t) / AUC / clearance / Vd: human, plasma, intravenous; for concentration at 1 h: 1 Hour Postdose at Day 1; for concentration at 2 h: 2 Hours Postdose at Day 1; for concentration at 4 h: 4 Hours Postdose at Day 1; for concentration at 6 h: 6 Hours Postdose at Day 1; for clearance: read-out: CL Mean (converted)
# Protocol: as §1
# Blood samples used for PK analysis of Compound A was collected according to Table 31. See also FIG. 10 for whole schedules of study procedures.
# patients with NT2 [4] = assay: Safety/tolerability of multiple IV doses in patients with NT2
# Protocol: as §1
# [5] = multiple IV administrations of up to 112 mg, NT2 patients
smiles,measurement,setting,value
"COC(=O)N1CCC[C@H](NS(C)(=O)=O)[C@@H]1CO[C@H]1CC[C@@H](c2ccccc2)CC1 [Compound A, methyl (2R,3S)-3-((methylsulfonyl)amino)-2-(((cis-4-phenylcyclohexyl)oxy)methyl)piperidine-1-carboxylate]",Mean change from baseline in KSS,"patients with NT2 [1]; Compound A 44 mg, Day 1",−0.5
same,Mean change from baseline in KSS,"patients with NT2 [1]; Compound A 44 mg, Day 7",0.0
same,Mean change from baseline in KSS,"patients with NT2 [1]; Compound A 112 mg, Day 1",−1.0
same,Mean change from baseline in KSS,"patients with NT2 [1]; Compound A 112 mg, Day 7",−0.8
same,ESS Change from Baseline Mean,patients with NT2 [2]; Compound A 44 mg,−3.8
same,ESS Change from Baseline Median,patients with NT2 [2]; Compound A 44 mg,−3.5
same,ESS Observed Value Mean,patients with NT2 [2]; Compound A 44 mg,13.3
same,ESS Observed Value Median,patients with NT2 [2]; Compound A 44 mg,14.0
same,Mean ESS score,patients with NT2 [2]; Compound A 44 mg,13.3
same,Mean change from baseline in ESS,patients with NT2 [2]; Compound A 44 mg,−3.8
same,ESS Change from Baseline Mean,patients with NT2 [2]; Compound A 112 mg,−12.2
same,ESS Change from Baseline Median,patients with NT2 [2]; Compound A 112 mg,−13.0
same,ESS Observed Value Mean,patients with NT2 [2]; Compound A 112 mg,6.0
same,ESS Observed Value Median,patients with NT2 [2]; Compound A 112 mg,4.0
same,Mean ESS score,patients with NT2 [2]; Compound A 112 mg,6.0
same,Mean change from baseline in ESS,patients with NT2 [2]; Compound A 112 mg,−12.2
same,Plasma Concentration Mean,"[3]; Cmpd A 44 mg, 0.17 Hour after End of Infusion at Day 1",45.48 ng/mL
same,Plasma Concentration Mean,"[3]; Cmpd A 44 mg, 0.5 Hour after End of Infusion at Day 1",33.98 ng/mL
same,Plasma Concentration Mean,"[3]; Cmpd A 44 mg, 2 Hours after End of Infusion at Day 1",16.33 ng/mL
same,Plasma Concentration Mean,"[3]; Cmpd A 44 mg, 6 Hours after End of Infusion at Day 1",5.020 ng/mL
same,Plasma Concentration Mean,"[3]; Cmpd A 44 mg, 9 Hours Postdose at Day 5",73.15 ng/mL
same,Plasma Concentration Mean,"[3]; Cmpd A 44 mg, 9 Hours Postdose at Day 6",65.80 ng/mL
same,Plasma Concentration Mean,"[3]; Cmpd A 44 mg, 10 Hours after End of Infusion at Day 1",2.515 ng/mL
same,Plasma Concentration Mean,"[3]; Cmpd A 44 mg, 14 Hours after End of Infusion at Day 1",0.7016 ng/mL
same,AUCtau D Mean,"[3]; Cmpd A 44 mg, Day 1",14.83 ng·h/mL/mg
same,Cmax D Mean,"[3]; Cmpd A 44 mg, Day 1",1.685 ng/mL/mg
same,t½z Mean,"[3]; Cmpd A 44 mg, Day 1",2.708 h
same,AUCtau D Mean,"[3]; Cmpd A 44 mg, Day 7",15.00 ng·h/mL/mg
same,Cmax D Mean,"[3]; Cmpd A 44 mg, Day 7",1.745 ng/mL/mg
same,PTR Mean,"[3]; Cmpd A 44 mg, Day 7",202.0
same,UCtau Geo Mean,"[3]; Cmpd A 44 mg, Day 7",657.1 ng·h/mL
same,UCtau Mean,"[3]; Cmpd A 44 mg, Day 7",660.0 ng·h/mL
same,t½z Mean,"[3]; Cmpd A 44 mg, Day 7",2.643 h
same,Plasma Concentration Mean,"[3]; Cmpd A 44 mg, Predose at Day 1",0.000 ng/mL
same,Plasma Concentration Mean,"[3]; Cmpd A 44 mg, Predose at Day 5",0.9273 ng/mL
same,Plasma Concentration Mean,"[3]; Cmpd A 44 mg, Predose at Day 6",0.7163 ng/mL
same,Plasma Concentration Mean,"[3]; Cmpd A 44 mg, Predose at Day 7",0.5635 ng/mL
same,Plasma Concentration Mean,"[3]; Cmpd A 112 mg, 0.17 Hour after End of Infusion at Day 1",81.03 ng/mL
same,Plasma Concentration Mean,"[3]; Cmpd A 112 mg, 0.5 Hour after End of Infusion at Day 1",75.26 ng/mL
same,Plasma Concentration Mean,"[3]; Cmpd A 112 mg, 2 Hours after End of Infusion at Day 1",32.46 ng/mL
same,Plasma Concentration Mean,"[3]; Cmpd A 112 mg, 6 Hours after End of Infusion at Day 1",12.03 ng/mL
same,Plasma Concentration Mean,"[3]; Cmpd A 112 mg, 10 Hours after End of Infusion at Day 1",5.610 ng/mL
same,AUCtau D Mean,"[3]; Cmpd A 112 mg, Day 1",13.52 ng·h/mL/mg
same,Cmax D Mean,"[3]; Cmpd A 112 mg, Day 1",1.540 ng/mL/mg
same,t½z Mean,"[3]; Cmpd A 112 mg, Day 1",2.800 h
same,AUCtau D Mean,"[3]; Cmpd A 112 mg, Day 7",13.68 ng·h/mL/mg
same,Cmax D Mean,"[3]; Cmpd A 112 mg, Day 7",1.550 ng/mL/mg
same,PTR Mean,"[3]; Cmpd A 112 mg, Day 7",201.1
same,UCtau Geo Mean,"[3]; Cmpd A 112 mg, Day 7",1519 ng·h/mL
same,UCtau Mean,"[3]; Cmpd A 112 mg, Day 7",1534 ng·h/mL
same,t½z Mean,"[3]; Cmpd A 112 mg, Day 7",3.136 h
same,Plasma Concentration Mean,"[3]; Cmpd A 112 mg, Predose at Day 1",0.000 ng/mL
same,Drug accumulation,[3]; QD 9-hour IV infusion daily for 7 days,no drug accumulation was observed
same,Dose proportionality of mean plasma systemic exposures,"[3]; daily 9-hour IV infusions, 44 and 112 mg",generally increased in a dose proportional manner
same,Cmax,"[3]; 44 mg, Cmax Geo Mean, Cmpd A 44 mg, Day 7",76.4 ng/mL
same,concentration at 1 h,"[3]; 44 mg, Cmpd A 44 mg",47.4 ng/mL
same,concentration at 2 h,"[3]; 44 mg, Cmpd A 44 mg",59 ng/mL
same,concentration at 4 h,"[3]; 44 mg, Cmpd A 44 mg",74.1 ng/mL
same,concentration at 6 h,"[3]; 44 mg, Cmpd A 44 mg",50 ng/mL
same,concentration at 9 h,"[3]; 44 mg, Cmpd A 44 mg, 9 Hours Postdose at Day 1, read-out: Plasma Concentration Mean",69 ng/mL
same,Tmax,"[3]; 44 mg, Cmpd A 44 mg, Day 1",3.88 h
same,AUC(0-inf),"[3]; 44 mg, Cmpd A 44 mg, Day 1, read-out: AUCinf Geo mean",651 ng·h/mL
same,AUC(0-inf),"[3]; 44 mg, Cmpd A 44 mg, Day 1, read-out: AUCinf Mean",655 ng·h/mL
same,AUC(0-t),"[3]; 44 mg, Cmpd A 44 mg, Day 1, read-out: AUClast Geo mean",648 ng·h/mL
same,AUC(0-t),"[3]; 44 mg, Cmpd A 44 mg, Day 1, read-out: AUClast Mean",652 ng·h/mL
same,AUC,"[3]; 44 mg, Cmpd A 44 mg, Day 1, read-out: AUCtau Geo mean",648 ng·h/mL
same,AUC,"[3]; 44 mg, Cmpd A 44 mg, Day 1, read-out: AUCtau Mean",652 ng·h/mL
same,clearance,"[3]; 44 mg, Cmpd A 44 mg, Day 1",1130 mL/min
same,concentration at 9 h,"[3]; 44 mg, Cmpd A 44 mg, Day 1, read-out: Ceoi Geo mean",68.7 ng/mL
same,concentration at 9 h,"[3]; 44 mg, Cmpd A 44 mg, Day 1, read-out: Ceoi Mean",69 ng/mL
same,Cmax,"[3]; 44 mg, Cmpd A 44 mg, Day 1, read-out: Cmax Geo mean",73.9 ng/mL
same,Cmax,"[3]; 44 mg, Cmpd A 44 mg, Day 1, read-out: Cmax Mean",74.1 ng/mL
same,Vd,"[3]; 44 mg, Cmpd A 44 mg, Day 1, read-out: Vss Mean",122 L
same,Vd,"[3]; 44 mg, Cmpd A 44 mg, Day 1, read-out: Vz Mean",288 L
same,Tmax,"[3]; 44 mg, Cmpd A 44 mg, Day 7",3.91 h
same,AUC(0-t),"[3]; 44 mg, Cmpd A 44 mg, Day 7, read-out: AUClast Geo Mean",657 ng·h/mL
same,AUC(0-t),"[3]; 44 mg, Cmpd A 44 mg, Day 7, read-out: AUClast Mean",660 ng·h/mL
same,clearance,"[3]; 44 mg, Cmpd A 44 mg, Day 7",1120 mL/min
same,Cmax,"[3]; 44 mg, Cmpd A 44 mg, Day 7, read-out: Cmax Mean",76.7 ng/mL
same,Vd,"[3]; 44 mg, Cmpd A 44 mg, Day 7, read-out: Vss Mean",114 L
same,Vd,"[3]; 44 mg, Cmpd A 44 mg, Day 7, read-out: Vz Mean",258 L
same,Cmax,"[3]; 112 mg, Cmax Geo Mean, Cmpd A 112 mg, Day 7",172 ng/mL
same,concentration at 1 h,"[3]; 112 mg, Cmpd A 112 mg",123 ng/mL
same,concentration at 2 h,"[3]; 112 mg, Cmpd A 112 mg",142 ng/mL
same,concentration at 4 h,"[3]; 112 mg, Cmpd A 112 mg",170 ng/mL
same,concentration at 6 h,"[3]; 112 mg, Cmpd A 112 mg",138 ng/mL
same,concentration at 9 h,"[3]; 112 mg, Cmpd A 112 mg, 9 Hours Postdose at Day 1, read-out: Plasma Concentration Mean",150 ng/mL
same,Tmax,"[3]; 112 mg, Cmpd A 112 mg, Day 1",4.93 h
same,AUC(0-inf),"[3]; 112 mg, Cmpd A 112 mg, Day 1, read-out: AUCinf Geo mean",1500 ng·h/mL
same,AUC(0-inf),"[3]; 112 mg, Cmpd A 112 mg, Day 1, read-out: AUCinf Mean",1520 ng·h/mL
same,AUC(0-t),"[3]; 112 mg, Cmpd A 112 mg, Day 1, read-out: AUClast Geo mean",1500 ng·h/mL
same,AUC(0-t),"[3]; 112 mg, Cmpd A 112 mg, Day 1, read-out: AUClast Mean",1520 ng·h/mL
same,AUC,"[3]; 112 mg, Cmpd A 112 mg, Day 1, read-out: AUCtau Geo mean",1500 ng·h/mL
same,AUC,"[3]; 112 mg, Cmpd A 112 mg, Day 1, read-out: AUCtau Mean",1520 ng·h/mL
same,clearance,"[3]; 112 mg, Cmpd A 112 mg, Day 1",1260 mL/min
same,concentration at 9 h,"[3]; 112 mg, Cmpd A 112 mg, Day 1, read-out: Ceoi Geo mean",156 ng/mL
same,concentration at 9 h,"[3]; 112 mg, Cmpd A 112 mg, Day 1, read-out: Ceoi Mean",158 ng/mL
same,Cmax,"[3]; 112 mg, Cmpd A 112 mg, Day 1, read-out: Cmax Geo mean",171 ng/mL
same,Cmax,"[3]; 112 mg, Cmpd A 112 mg, Day 1, read-out: Cmax Mean",172 ng/mL
same,Vd,"[3]; 112 mg, Cmpd A 112 mg, Day 1, read-out: Vss Mean",121 L
same,Vd,"[3]; 112 mg, Cmpd A 112 mg, Day 1, read-out: Vz Mean",299 L
same,AUC(0-t),"[3]; 112 mg, Cmpd A 112 mg, Day 7, read-out: AUClast Geo Mean",1520 ng·h/mL
same,AUC(0-t),"[3]; 112 mg, Cmpd A 112 mg, Day 7, read-out: AUClast Mean",1530 ng·h/mL
same,clearance,"[3]; 112 mg, Cmpd A 112 mg, Day 7",1240 mL/min
same,Cmax,"[3]; 112 mg, Cmpd A 112 mg, Day 7, read-out: Cmax Mean",173 ng/mL
same,Vd,"[3]; 112 mg, Cmpd A 112 mg, Day 7, read-out: Vss Mean",124 L
same,Vd,"[3]; 112 mg, Cmpd A 112 mg, Day 7, read-out: Vz Mean",338 L
same,Number of TEAE related to BP (blood pressure increased),"patients with NT2 [4]; Compound A 112 mg group, mild intensity",1
same,SAE / TEAE leading to study drug discontinuation,patients with NT2 [4]; [5],"no SAE, and no TEAE leading to study drug discontinuation"
same,Safety and tolerability,patients with NT2 [4]; [5],safe and well tolerated
